Source: patent US10781211B2, “Spirocycle compounds and methods of making and using same” (Lundbeck La Jolla Research Center, Inc., priority 2016, dated 2020)

Columns and labels:
Format in all cases: in vivo
Details in all cases: 5 mg/kg oral gavage
[1] = biological target: MAGL (Mus musculus (Mouse), UniProt O35678); assay: Mouse brain proteomes from inhibitor treated mice (oral gavage, sacrifice 4 h after administration, ABPP analysis)
Method: Preparation of Mouse Brain Proteomes from Inhibitor Treated Mice.
Inhibitors were administered to wild-type C57Bl/6J by oral gavage in a vehicle, e.g. PEG400/Ethanol/PBS (7/2/1). Each animal was sacrificed 4 h following administration and brain proteomes were prepared and analyzed according to previously established methods (See Niphakis, M. J., et al. (2011) ACS Chem. Neurosci. and Long, J. Z., et al. Nat. Chem. Biol. 5:37-44). Data from this assay is shown in Table 2 (% inhibition at 5 mg/kg).

[2] = biological target: FAAH (Mus musculus (Mouse), UniProt O08914); assay: Mouse brain proteomes from inhibitor treated mice (oral gavage, sacrifice 4 h after administration, ABPP analysis), FAAH
Sequence of FAAH (O08914 whole entry): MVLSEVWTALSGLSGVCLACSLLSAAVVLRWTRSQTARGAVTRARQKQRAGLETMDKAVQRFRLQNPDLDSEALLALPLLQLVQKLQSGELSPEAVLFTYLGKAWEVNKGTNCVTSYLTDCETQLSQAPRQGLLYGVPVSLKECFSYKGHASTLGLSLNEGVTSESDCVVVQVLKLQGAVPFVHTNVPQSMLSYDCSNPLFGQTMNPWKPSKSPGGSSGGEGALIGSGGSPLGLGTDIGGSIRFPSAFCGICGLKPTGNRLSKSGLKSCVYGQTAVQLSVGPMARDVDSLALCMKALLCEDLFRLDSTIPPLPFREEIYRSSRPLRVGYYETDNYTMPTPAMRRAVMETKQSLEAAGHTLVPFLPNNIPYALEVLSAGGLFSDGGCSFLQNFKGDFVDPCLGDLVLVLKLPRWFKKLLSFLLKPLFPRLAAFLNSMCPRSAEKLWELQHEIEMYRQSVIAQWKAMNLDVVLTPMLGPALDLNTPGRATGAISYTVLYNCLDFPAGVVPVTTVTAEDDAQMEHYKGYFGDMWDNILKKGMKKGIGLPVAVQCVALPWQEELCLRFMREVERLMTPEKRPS
In short: (§1)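 Oral dosing of C57Bl/6J wild-type mice at 5 mg/kg, brain collection 4 h afterwards, then ABPP of brain proteomes to give % target inhibition.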

[3] = biological target: ABHD6 (Mus musculus (Mouse), UniProt Q8R2Y0); assay: Mouse brain proteomes from inhibitor treated mice (oral gavage, sacrifice 4 h after administration, ABPP analysis), ABHD6
Sequence of ABHD6 (Q8R2Y0 whole entry): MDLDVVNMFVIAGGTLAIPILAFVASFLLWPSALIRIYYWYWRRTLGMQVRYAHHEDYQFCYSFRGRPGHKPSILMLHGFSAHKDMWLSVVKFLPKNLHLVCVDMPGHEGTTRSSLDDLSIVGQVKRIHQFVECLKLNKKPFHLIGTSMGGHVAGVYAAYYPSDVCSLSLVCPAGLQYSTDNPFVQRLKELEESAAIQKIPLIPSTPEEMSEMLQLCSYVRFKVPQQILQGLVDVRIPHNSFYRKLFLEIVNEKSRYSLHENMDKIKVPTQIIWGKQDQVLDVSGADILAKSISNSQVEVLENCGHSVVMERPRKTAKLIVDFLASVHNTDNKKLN
In short: as §1

Sequence of MAGL (O35678 whole entry): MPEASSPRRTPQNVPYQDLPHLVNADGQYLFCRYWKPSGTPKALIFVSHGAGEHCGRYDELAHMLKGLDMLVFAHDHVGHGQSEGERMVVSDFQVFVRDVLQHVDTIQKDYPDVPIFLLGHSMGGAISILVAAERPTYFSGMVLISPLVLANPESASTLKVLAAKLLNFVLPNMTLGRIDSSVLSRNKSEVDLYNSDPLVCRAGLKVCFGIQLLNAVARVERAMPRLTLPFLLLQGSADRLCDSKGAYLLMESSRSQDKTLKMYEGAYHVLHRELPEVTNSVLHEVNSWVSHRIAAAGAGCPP

Compound | MAGL % Inh 5 mg/kg (mouse) [1] | FAAH % Inh 5 mg/kg (mouse) [2] | ABHD6 % Inh 5 mg/kg (mouse) [3]
O=C(OC(C(F)(F)F)C(F)(F)F)N1CCC2(CCCN2Cc2cccc(OCCF)c2)CC1 [Example 27, 1,1,1,3,3,3-Hexafluoropropan-2-yl 1-(3-(2-fluoroethoxy)benzyl)-1,8-diazaspiro[4.5]decane-8-carboxylate] | ### (### is ≥ 75%) | # (# is < 25%) | # (# is < 25%)
CC(=O)NC1CCN(c2cc(C(F)(F)F)ccc2CN2CCCC23CCN(C(=O)OC(C(F)(F)F)C(F)(F)F)CC3)CC1 [Example 93, 1,1,1,3,3,3-Hexafluoropropan-2-yl 1-(2-(4-acetamidopiperidin-1-yl)-4-(trifluoromethyl)benzyl)-1,8-diazaspiro[4.5]decane-8-carboxylate] | ### (### is ≥ 75%) | # (# is < 25%) | # (# is < 25%)
CN(C)C(=O)C1CCN(c2cc(C(F)(F)F)ccc2CN2CCCC23CCN(C(=O)OC(C(F)(F)F)C(F)(F)F)CC3)CC1 [Example 16, 1,1,1,3,3,3-Hexafluoropropan-2-yl 1-(2-(4-(dimethylcarbamoyl)piperidin-1-yl)-4-(trifluoromethyl)benzyl)-1,8-diazaspiro[4.5]decane-8-carboxylate] | # (# is < 25%) | # (# is < 25%) | # (# is < 25%)
O=C(OC(C(F)(F)F)C(F)(F)F)N1CCC2(CCCN2Cc2ccc(Cl)cc2OCCF)CC1 [Example 30, 1,1,1,3,3,3-Hexafluoropropan-2-yl 1-(4-chloro-2-(2-fluoroethoxy)benzyl)-1,8-diazaspiro[4.5]decane-8-carboxylate] | ### (### is ≥ 75%) | # (# is < 25%) | # (# is < 25%)
O=C(OC(C(F)(F)F)C(F)(F)F)N1CCC2(CCCN2Cc2cc(Oc3nc4ccccc4s3)cc(C(F)(F)F)c2)CC1 [Example 172, 1,1,1,3,3,3-Hexafluoropropan-2-yl 1-(3-(benzo[d]thiazol-2-yloxy)-5-(trifluoromethyl)benzyl)-1,8-diazaspiro[4.5]decane-8-carboxylate] | # (# is < 25%) | # (# is < 25%) | # (# is < 25%)
CS(=O)(=O)C1CCN(c2cc(C(F)(F)F)ccc2CN2CCCC23CCN(C(=O)OC(C(F)(F)F)C(F)(F)F)CC3)CC1 [Example 267] | # (# is < 25%) | # (# is < 25%) | # (# is < 25%)
O=C(OC(C(F)(F)F)C(F)(F)F)N1CCC2(CCCN2Cc2ccc(Cl)cc2N2CC3CCC(C2)O3)CC1 [Example 75, 1,1,1,3,3,3-Hexafluoropropan-2-yl 1-(2-(8-oxa-3-azabicyclo[3.2.1]octan-3-yl)-4-chlorobenzyl)-1,8-diazaspiro[4.5]decane-8-carboxylate] | ### (### is ≥ 75%) | # (# is < 25%) | # (# is < 25%)

Next, values leading:

MAGL % Inh 5 mg/kg (mouse) [1] | FAAH % Inh 5 mg/kg (mouse) [2] | ABHD6 % Inh 5 mg/kg (mouse) [3] | Compound
### (### is ≥ 75%) | # (# is < 25%) | # (# is < 25%) | O=C(OC(C(F)(F)F)C(F)(F)F)N1CCC2(CCCN2Cc2ccc(C(F)(F)F)c(N3CCOCC3)c2)CC1 [Example 133, 1,1,1,3,3,3-Hexafluoropropan-2-yl 1-(3-morpholino-4-(trifluoromethyl)benzyl)-1,8-diazaspiro[4.5]decane-8-carboxylate]
### (### is ≥ 75%) | # (# is < 25%) | # (# is < 25%) | O=C(OC(C(F)(F)F)C(F)(F)F)N1CCC2(CCCN2Cc2cc(Cl)cc(N3CCCC3)c2)CC1 [Example 34, 1,1,1,3,3,3-Hexafluoropropan-2-yl 1-(3-chloro-5-(pyrrolidin-1-yl)benzyl)-1,8-diazaspiro[4.5]decane-8-carboxylate]
# (# is < 25%) | # (# is < 25%) | # (# is < 25%) | CN1CCC(Oc2cc(CN3CCCC34CCN(C(=O)OC(C(F)(F)F)C(F)(F)F)CC4)cc(C(F)(F)F)c2)CC1 [Example 166, 1,1,1,3,3,3-Hexafluoropropan-2-yl 1-(3-(1-methylpiperidin-4-yloxy)-5-(trifluoromethyl)benzyl)-1,8-diazaspiro[4.5]decane-8-carboxylate]
### (### is ≥ 75%) | # (# is < 25%) | # (# is < 25%) | O=C(OC(C(F)(F)F)C(F)(F)F)N1CCC2(CCCN2Cc2ccc(C(F)(F)F)cc2N2CCC2)CC1 [Example 96, 1,1,1,3,3,3-Hexafluoropropan-2-yl 1-(2-(azetidin-1-yl)-4-(trifluoromethyl)benzyl)-1,8-diazaspiro[4.5]decane-8-carboxylate]
### (### is ≥ 75%) | # (# is < 25%) | # (# is < 25%) | Cc1cc(CN2CCCC23CCN(C(=O)OC(C(F)(F)F)C(F)(F)F)CC3)ccc1Cl [Example 124, 1,1,1,3,3,3-Hexafluoropropan-2-yl 1-(4-chloro-3-methylbenzyl)-1,8-diazaspiro[4.5]decane-8-carboxylate]
### (### is ≥ 75%) | # (# is < 25%) | # (# is < 25%) | O=C(OC(C(F)(F)F)C(F)(F)F)N1CCC2(CCCN2Cc2cccc(N3CCCC3)c2Cl)CC1 [Example 81, 1,1,1,3,3,3-Hexafluoropropan-2-yl 1-(2-chloro-3-(pyrrolidin-1-yl)benzyl)-1,8-diazaspiro[4.5]decane-8-carboxylate]
# (# is < 25%) | # (# is < 25%) | # (# is < 25%) | CC1(C(=O)O)CN(c2cc(CN3CCCC34CCN(C(=O)OC(C(F)(F)F)C(F)(F)F)CC4)cc(C(F)(F)F)c2)CCO1 (stereo not drawn) [Example 195, 4-(3-((8-(((1,1,1,3,3,3-hexafluoropropan-2-yl)oxy)carbonyl)-1,8-diazaspiro[4.5]decan-1-yl)methyl)-5-(trifluoromethyl)phenyl)-2-methylmorpholine-2-carboxylic acid]
### (### is ≥ 75%) | # (# is < 25%) | # (# is < 25%) | O=C(OC(C(F)(F)F)C(F)(F)F)N1CCC2(CCN(Cc3ccc(Cl)cc3N3CCCCC3)C2)CC1 [Example 24, 1,1,1,3,3,3-Hexafluoropropan-2-yl 2-(4-chloro-2-(piperidin-1-yl)benzyl)-2,8-diazaspiro[4.5]decane-8-carboxylate]
### (### is ≥ 75%) | ### (### is ≥ 75%) | # (# is < 25%) | O=C(OC(C(F)(F)F)C(F)(F)F)N1CCC2(CCCN2Cc2cccc(Cl)c2)CC1 [Example 61, 1,1,1,3,3,3-Hexafluoropropan-2-yl 1-(3-chlorobenzyl)-1,8-diazaspiro[4.5]decane-8-carboxylate]
